Measured values: US9718790B2, “Triazine derivative and pharmaceutical composition having an analgesic activity comprising the same” (SHIONOGI & CO., LTD., priority 2010, dated 2017)

Legend:
[1] = molecular target: human P2X3 receptor (Homo sapiens (Human), UniProt P56373); assay: Evaluation of human P2X3 receptor inhibitory activity (Fluo-3 calcium fluorescence, FDSS 3000, ATP stimulation); format: cell-based;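 note: stimulus was 50 nM ATP with fluorescence followed for 3 min, and the response per well was peak post-ATP fluorescence divided by the reading at measurement start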
human P2X3 receptor, sequence (P56373 whole entry): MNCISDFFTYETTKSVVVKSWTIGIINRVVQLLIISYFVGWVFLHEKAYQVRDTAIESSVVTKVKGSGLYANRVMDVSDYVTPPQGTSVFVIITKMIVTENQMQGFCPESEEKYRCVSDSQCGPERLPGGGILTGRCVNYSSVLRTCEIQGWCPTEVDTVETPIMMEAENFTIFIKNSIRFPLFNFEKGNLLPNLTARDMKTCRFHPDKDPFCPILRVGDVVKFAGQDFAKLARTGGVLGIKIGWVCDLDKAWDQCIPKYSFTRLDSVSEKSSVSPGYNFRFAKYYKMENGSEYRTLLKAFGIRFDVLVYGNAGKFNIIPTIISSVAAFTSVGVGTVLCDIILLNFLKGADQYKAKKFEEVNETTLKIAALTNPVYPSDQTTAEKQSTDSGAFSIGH

[2] = molecular target: rat P2X3 receptor (Rattus norvegicus (Rat), UniProt P49654); assay: Evaluation of rat P2X3 receptor inhibitory activity (Fluo-3 calcium fluorescence, FDSS 3000, ATP stimulation); format: cell-based
rat P2X3 receptor, sequence (P49654 whole entry): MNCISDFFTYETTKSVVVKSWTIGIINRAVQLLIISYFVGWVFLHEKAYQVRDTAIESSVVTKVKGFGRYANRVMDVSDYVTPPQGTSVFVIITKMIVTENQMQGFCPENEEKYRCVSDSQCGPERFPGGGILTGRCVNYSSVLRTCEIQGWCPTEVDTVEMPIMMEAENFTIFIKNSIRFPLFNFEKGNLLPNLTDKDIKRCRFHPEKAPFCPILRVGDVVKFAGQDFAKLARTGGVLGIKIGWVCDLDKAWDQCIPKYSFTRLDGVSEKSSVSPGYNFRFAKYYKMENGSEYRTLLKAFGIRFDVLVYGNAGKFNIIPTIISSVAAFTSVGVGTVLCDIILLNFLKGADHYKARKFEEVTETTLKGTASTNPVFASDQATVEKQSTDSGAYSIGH
Description: Rat P2X3 receptor gene (GenBank accession number NM_031075) was expressed in C6BU-1 cell. The cells stably expressing rat P2X3 were seeded in a 96-well microtiter plate at a concentration of 8000 cells/well and cultured in the medium (8.3% fetal bovine serum. 8.3% horse serum, 1% antibiotic and antifungal in DMEM) for one day at 37° C. under 5% carbon dioxide atmosphere. In transiently expressing system, the C6BU-1 cells were seeded in a […] at a concentration of 2500 cells/well and cultured in the medium for one day at 37° C. under 5% carbon dioxide atmosphere. The plasmid was transfected into the cells using transfection reagent FuGENE6 (Roche). The transfected cells were cultured in the medium for one day at 37° C. under 5% carbon dioxide atmosphere. […] Measurement of fluorescence intensity by FDSS 3000 was started, and 40 μL of DMSO solutions containing different concentrations of the test compound as prepared by dilution with dilution buffer (20 mM HEPES, 137 mM NaCl, 2.7 mM KCl, 0.9 mM MgCl2, 5.0 mM CaCl2, 5.6 mM D-glucose, 2.5 mM probenecid, 0.1% Pluronic F-127, pH 7.5) were dispensed to each well through the built-in automatic dispenser. Five minutes after, […] ATP solution (50 μL) prepared by dilution with the dilution buffer was dispensed through the built-in automatic dispenser, and the measurement of fluorescence intensity was continued for 3 min. For each well, the specific maximum fluorescence intensity was calculated as the ratio of the maximum fluorescence intensity after addition of the ATP solution to the fluorescence intensity at the starting of the measurement. […] FDSS software (Hamamatsu Photonics K.K.) was used for calculation of the specific maximum fluorescence intensity. IC50 was calculated using Microsoft Excel (Microsoft Corporation) and XLfit (idbs Ltd.).

[3] = molecular target: CYP1A2 (Homo sapiens (Human), UniProt P05177); assay: CYP inhibition test, pooled human hepatic microsome, 7-ethoxyresorufin O-deethylation; format: in vitro ADME; conditions: substrate ethoxyresorufin
CYP1A2, sequence (P05177 whole entry): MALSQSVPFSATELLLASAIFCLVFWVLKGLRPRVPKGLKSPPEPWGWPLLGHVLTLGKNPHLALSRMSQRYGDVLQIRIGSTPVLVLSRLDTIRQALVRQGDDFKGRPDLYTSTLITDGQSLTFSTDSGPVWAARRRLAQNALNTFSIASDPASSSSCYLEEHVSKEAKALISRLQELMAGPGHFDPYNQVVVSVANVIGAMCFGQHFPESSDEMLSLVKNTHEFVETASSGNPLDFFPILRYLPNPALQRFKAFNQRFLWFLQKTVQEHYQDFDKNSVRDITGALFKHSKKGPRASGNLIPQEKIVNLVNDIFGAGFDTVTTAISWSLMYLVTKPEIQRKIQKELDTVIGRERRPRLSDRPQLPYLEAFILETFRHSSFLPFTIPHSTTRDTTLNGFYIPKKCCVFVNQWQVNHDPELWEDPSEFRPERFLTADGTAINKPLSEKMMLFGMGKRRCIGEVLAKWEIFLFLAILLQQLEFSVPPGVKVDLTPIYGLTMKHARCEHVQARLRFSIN
Description: (§1) Using commercially available pooled human hepatic microsome, and employlng, as markers, 7-ethoxyresorufin O-deethylation (CYP1A2), tolbutamide methyl-hydroxylation (CYP2C9), mephenyloin 4′-hydroxylation (CYP2C19), dextromethorphan O-demethylation (CYP2D6), and terfenedine hydroxylation as typical substrate metabolism reactions of human main five CYP enzyme forms (CYP1A2, 2C9, 2C19, 2D6, 3A4), an inhibitory degree of each metabolite production amount by a test compound was assessed.
(§2) The reaction conditions were as follows: substrate, 0.5 μmol/L ethoxyresorufin (CYP1A2), 100 μmol/L tolbutamide (CYP2C9), 50 μmol/L S-mephenitoin (CYP2C19), 5 μmol/L dextromethorphan (CYP2D6), 1 μmol/L terfenedine (CYP3A4) reaction time, 15 minutes; reaction temperature, 37° C; enzyme, pooled human hepatic microsome 0.2 mg protein/mL; test drug concentration, 1.0, 5.0, 10, 20 μmol/L (four points).
(§3) Each five kinds of substrates, human hepatic microsome, or a test drug in 50 mmol/L Hepes buffer as a reaction solution was added to a 96-well plate at the composition as described above, NADPH, as a cofactor was added to initiate metabolism reactions as markers and, after the incubation at 37° C. for 15 minutes, a methanol/acetonitrile=1/1 (v/v) solution was added to stop the reaction. After the centrifugation at 3000 rpm for 15 minutes, resorufin (CYP1A2 metabolite) in the supernatant was quantified by a fluorescent multilabel counter and tributamide hydroxide (CYP2CP metabolite), mephenyloin 4′ hydroxide (CYP2C19 metabolite), […] (CYP2D6 metabolite), and terfenadine alcohol (CYP3A4 metabolite) were quantified by LC/MS/MS.

[4] = molecular target: CYP2C9 (Homo sapiens (Human), UniProt P11712); assay: CYP inhibition test, pooled human hepatic microsome, tolbutamide methyl-hydroxylation; format: in vitro ADME; conditions: substrate tolbutamide
CYP2C9, sequence (P11712 whole entry): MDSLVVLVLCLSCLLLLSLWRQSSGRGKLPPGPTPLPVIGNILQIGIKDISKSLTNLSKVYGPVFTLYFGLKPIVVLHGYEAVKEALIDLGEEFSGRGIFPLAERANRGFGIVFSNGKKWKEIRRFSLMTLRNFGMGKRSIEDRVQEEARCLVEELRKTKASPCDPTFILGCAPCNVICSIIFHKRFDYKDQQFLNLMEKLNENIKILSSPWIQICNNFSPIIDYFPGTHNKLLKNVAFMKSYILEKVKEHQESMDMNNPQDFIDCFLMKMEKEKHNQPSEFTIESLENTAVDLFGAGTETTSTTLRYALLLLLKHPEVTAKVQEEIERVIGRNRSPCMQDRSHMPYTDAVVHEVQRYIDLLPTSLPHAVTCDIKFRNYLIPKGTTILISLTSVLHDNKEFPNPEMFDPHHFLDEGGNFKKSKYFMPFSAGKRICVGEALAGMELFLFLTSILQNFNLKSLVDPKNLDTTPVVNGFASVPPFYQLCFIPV
Description: as §1, §2, §3

[5] = molecular target: CYP2C19 (Homo sapiens (Human), UniProt P33261); assay: CYP inhibition test, pooled human hepatic microsome, mephenytoin 4'-hydroxylation; format: in vitro ADME; conditions: substrate S-mephenitoin
CYP2C19, sequence (P33261 whole entry): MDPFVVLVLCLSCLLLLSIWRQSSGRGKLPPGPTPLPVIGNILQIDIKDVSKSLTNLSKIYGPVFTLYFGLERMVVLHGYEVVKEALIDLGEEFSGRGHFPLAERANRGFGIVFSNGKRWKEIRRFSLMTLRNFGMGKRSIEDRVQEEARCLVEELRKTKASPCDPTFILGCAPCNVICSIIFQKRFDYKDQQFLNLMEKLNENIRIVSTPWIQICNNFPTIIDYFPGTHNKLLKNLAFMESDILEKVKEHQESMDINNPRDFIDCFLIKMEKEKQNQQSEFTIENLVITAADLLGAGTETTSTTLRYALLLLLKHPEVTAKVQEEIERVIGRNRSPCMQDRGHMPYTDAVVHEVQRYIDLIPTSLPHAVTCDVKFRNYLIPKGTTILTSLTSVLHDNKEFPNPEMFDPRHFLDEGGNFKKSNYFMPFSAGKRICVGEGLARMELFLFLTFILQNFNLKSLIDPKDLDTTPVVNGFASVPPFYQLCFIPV
Description: as §1, §2, §3

[6] = molecular target: CYP2D6 (Homo sapiens (Human), UniProt P10635); assay: CYP inhibition test, pooled human hepatic microsome, dextromethorphan O-demethylation; format: in vitro ADME; conditions: substrate dextromethorphan
CYP2D6, sequence (P10635 whole entry): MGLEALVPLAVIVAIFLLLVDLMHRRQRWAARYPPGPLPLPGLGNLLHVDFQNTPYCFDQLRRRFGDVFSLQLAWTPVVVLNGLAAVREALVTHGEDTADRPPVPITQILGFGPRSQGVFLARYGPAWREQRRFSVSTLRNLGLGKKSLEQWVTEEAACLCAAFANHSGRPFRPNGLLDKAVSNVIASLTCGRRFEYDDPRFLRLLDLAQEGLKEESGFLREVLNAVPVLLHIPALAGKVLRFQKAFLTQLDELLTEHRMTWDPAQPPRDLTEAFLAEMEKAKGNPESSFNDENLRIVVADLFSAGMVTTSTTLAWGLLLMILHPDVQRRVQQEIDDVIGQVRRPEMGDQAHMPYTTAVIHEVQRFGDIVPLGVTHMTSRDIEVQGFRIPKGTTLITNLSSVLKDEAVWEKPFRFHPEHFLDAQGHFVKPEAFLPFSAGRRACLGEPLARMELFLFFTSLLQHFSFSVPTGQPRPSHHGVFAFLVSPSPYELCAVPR
Description: as §1, §2, §3

[7] = Solubility test (1% DMSO, artificial intestinal juice pH 6.8); format: physicochemical; conditions: artificial intestinal juice pH 6.8 with 1% DMSO, 25 °C, fassgf or other biorelevant, kinetic from dmso stock, artificial intestinal juice pH 6.8, 25 degrees Celsius
Description: 10 mmol/L compound solution was prepared using DMSO, and then 6 μL of the compound solution was added to 594 μL of artificial intestinal juice in pH 6.8 (to 250 mL of 0.2 mol/L potassium dihydrogen phosphate reagent solution was added 118 mL of 0.2 mol/L NaOH reagent solution and water to provide a final volume of 1000 mL). After standing at 25 degrees Celsius for 16 hours, the mixed solution was filtrated with suction. The filtrate was diluted twice with methanol/water ( 1/1) and then a concentration in the filtration was measured with HPLC or LC/MS/MS by the absolute calibration method.

[8] = tested on: human liver microsomes; assay: Metabolism stability test with pooled human hepatic microsomes; format: in vitro ADME; conditions: compound concentration 0.5 μmol/L, 30 minutes, NADPH
Description: Using commercially available pooled human hepatic microsomes, a test compound is reacted for a constant time, a remaining rate is calculated by comparing a reacted sample and an unreacted sample, thereby, a degree of metabolism in liver is assessed.
A reaction was performed (oxidative reaction) at 37° C. for 0 minute or 30 minutes in the presence of 1 mmol/L NADPH in 0.2 mL of a buffer (50 mmol/L tris-HCl pH 7.4, 150 mmol/L potassium chloride, 10 mmol/L magnesium chloride) containing 0.5 mg protein/mL of human liver microsomes. After the reaction, 50 μL of the reaction solution was added to 100 μL of a methanol/acetonitrile=1/1 (v/v), mixed and centrifuged at 3000 rpm for 15 minutes. The test compound in the supernatant was quantified by LC/MS/MS, and a remaining amount of the test compound after the reaction was calculated, letting a compound amount at 0 minute reaction time to be 100%.

[9] = human P2X3 receptor, Test Example 1

Row | SMILES | IC50 ([1]; C6BU-1 cells stably expressing human P2X3 receptor, Fluo-3 fluorescence, FDSS 3000) [µM] | IC50 [2] [µM] | IC50 [3] [µM] | IC50 [4] [µM] | IC50 [5] [µM] | IC50 [6] [µM] | solubility at 16 h [7] [µM] | remaining rate [8] [%] | IC50 [1, 9] [µM]
1 | CCn1c(=O)[nH]/c(=N\c2ccc(Oc3ccnc(C(=O)O)c3)cc2)n(Cc2ccc(Cl)cc2)c1=O [Compound I-1788] | 0.005 | 0.005 | > 20 | > 20 | > 20 | > 20 | > 50 | > 99.9 | –
2 | C[C@@H](Cn1c(=O)[nH]/c(=N\c2ccc(OCC3CC3)cc2)n(Cc2ccc(Cl)cc2)c1=O)C(=O)O [Compound I-0837] | – | 0.019 | > 20 | > 20 | > 20 | > 20 | > 50 | 99 | 0.017
3 | O=c1[nH]/c(=N\c2ccc(Oc3ccon3)cc2)n(Cc2ccc(Cl)cc2)c(=O)n1CC(CO)CO [Compound I-2291] | – | 0.003 | > 20 | > 20 | > 20 | > 20 | > 50 | 94 | 0.004
